ChEMBL document CHEMBL4665768, “Monacycliones G-K and ent-Gephyromycin A, Angucycline Derivatives from the Marine-Derived Streptomyces sp. HDN15129” (J Nat Prod, 2020)
pIC50: −log10 of the molar value. Counter-ions that a name gives are not always drawn.

Assays:
PC-3 = test: Cytotoxicity against human PC-3 cells assessed as reduction in cell viability by SRB assay; format: functional, cell-based
ASPC1 = test: Cytotoxicity against human ASPC1 cells assessed as reduction in cell viability by SRB assay; format: functional, cell-based
U-87 MG = test: Cytotoxicity against human U87 cells assessed as reduction in cell viability by SRB assay; format: functional, cell-based, U-87MG ATCC
Bel-7402 = test: Cytotoxicity against human Bel-7402 cells assessed as reduction in cell viability by SRB assay; format: functional, cell-based
SH-SY5Y = test: Cytotoxicity against human SH-SY5Y cells assessed as reduction in cell viability by SRB assay; format: functional, cell-based
HCT-116 = test: Cytotoxicity against human HCT-116 cells assessed as reduction in cell viability by SRB assay; format: functional, cell-based
K562 = test: Cytotoxicity against human K562 cells assessed as reduction in cell viability by MTT assay; format: functional, cell-based
HL-60 = test: Cytotoxicity against human HL-60 cells assessed as reduction in cell viability by MTT assay; format: functional, cell-based

SMILES | pIC50 (PC-3) | pIC50 (ASPC1) | pIC50 (U-87 MG) | pIC50 (Bel-7402) | pIC50 (SH-SY5Y) | pIC50 (HCT-116) | pIC50 (K562) | pIC50 (HL-60)
COc1cccc2c1C(=O)c1c(O)c3c(c(O)c1C2=O)C[C@@](O)(C(=O)CO)C[C@@H]3O[C@H]1C[C@H](N)[C@H](O)[C@H](C)O1 [DOXORUBICIN HYDROCHLORIDE] | 6.70 | 6.70 | 6.70 | 6.52 | 6.30 |  |  | 
CN[C@H]1CC[C@H](c2ccc3c(c2O)C(=O)c2cc(SC)c4cc(C)cc(O)c4c2C3=O)O[C@H]1C | < 5.00 | < 5.00 | < 5.00 | < 5.00 | < 5.00 | < 5.00 | < 5.00 | 5.12
CSc1cc2c(c3c1C[C@@](C)(O)CC3=O)C(=O)c1ccc([C@H]3CC[C@H](N(C)C)[C@H](C)O3)c(O)c1C2=O | 5.11 | 5.15 | 5.10 | 5.00 | 5.37 | 5.00 | 5.15 | 5.46
